Data reported in patent US10302644B2, “Compositions and methods for treating multiple myeloma” (Dana-Farber Cancer Institute, Inc., priority 2014, dated 2019).
“Also recorded” adds a separate entry of the source.

What was measured:
[1] = tested on: p53; assay: Immunoblotting of p53 and phosphorylated p53 in MM cells; type: cell-based
Method: (§1) MM cells were harvested and lysed using RIPA-lysis buffer (Boston Bioproducts, Ashland, Mass.) containing 5 mM EDTA, 5 mM NaF, 2 mM Na3VO4, 1 mM PMSF, 5 μg/ml leupeptin, and 5 μg/ml aprotinin. Nuclear proteins were extracted using “Nuclear Extraction Kit” (Affimetrix). After the determination of protein concentration using DC protein assay (Bio-Rad, Hercules, Calif.), β-mercaptoethanol (-ME) was added to the whole-cell lysates to a 2% final concentration. The whole cell lysates or nuclear extracts were subjected to SDS-PAGE, transferred to nitrocellulose membranes (Bio-Rad, Hercules, Calif.) or polyvinylidene fluoride membranes (Millipore, Billerica, Mass.), and immunoblotted with indicated Abs. Silver staining was carried out using “SilverQuest Staining Kit®” (Invitrogen), according to manufacturer's protocol.

[2] = tested on: LC3-II, Bim, PARP, MDM2, XIAP, cIAP, p-p70S6K; assay: Immunoblotting/qPCR of autophagy and apoptosis proteins in MM cells; type: cell-based
Method: as §1
(§2) RNA was extracted using Trizol (Invitrogen) and quantified by a Nanodrop spectrophotometer (Labtech). Specifically, 5×10^6 cells were pelleted, washed with cold PBS, and resuspended in 1 mL Trizol. They were then incubated with 1-Bromo-3-chloropropane (Sigma), washed first with Isopropyl alcohol and then with 75% Ethanol, and resuspended in Nuclease Free-water (Invitrogen). After quantification, 2000 ng of RNA was used to synthesize cDNA via the Superscript II First strand synthesis Kit (Invitrogen), according to the manufacturer's instructions. To evaluate the expression levels of TP53RK, BCL2L11, MYC, Bim, E2F1, TP53, IKZF1, IKZF3, RRM1, p18CDKN2C, PSMB5, PSMB7, PSMA3 and GAPDH, quantitative real time PCR (QRT-PCR) was performed using SYBR GREEN PCR Master Mix (Applied Biosystem), after optimization of the primer conditions. cDNAs were diluted 1:100 or 1:1000 and amplified in a 20 μL reaction. Primers were used at 200 nM or 400 nM concentration. Thermal cycling conditions were: 10 minutes at 95° C., 40 cycles at 95° C. for 15 seconds, followed by 1 minute at 60° C. Real-time quantitative PCR was performed on ABI Prism 7300 Sequence Detection System (Applied Biosystems). Data were analyzed using the delta delta Ct method. GAPDH was used as an invariant control.

[3] = tested on: MM cells; assay: Growth inhibition assay (MTT) / viable cell count (Trypan-blue); type: cell-based
Method: Cell growth was assessed by measuring 3-(4,5-dimethylthiazol-2-yl)-2,5-diphenyl […] bromide (MTT, Chemicon International, Temecula, Calif.) dye absorbance. Cells were pulsed with 10 μl of 5 mg/ml MTT to each well for the last 4 h of 48 h and/or 72 h cultures, followed by 100 μl isopropanol containing 0.04N HCl. Absorbance was measured at 570/630 nm using a spectrophotometer (Molecular Devices Corp., Sunnyvale Calif.).

[4] = tested on: p53; assay: p53 DNA binding activity assay; type: cell-based; details: MM.1S and H929 cells, 48 h
Method: E2F1 DNA binding activity was assessed by electrophoretic mobility shift assay (EMSA) using “EMSA Gel Shift Kit®” from Affimetrix (Santa Clara, Calif.), and p53 DNA binding activity was performed using “p53 Transcription Factor Assay Kit®” from Cayman Chemical (Ann Arbor, Mich.). Experiments were carried out according to manufacturer's protocols.

[5] = target: T1, TP53RK (Homo sapiens, UniProt Q96S44); assay: In vitro TP53RK auto-phosphorylation assay; type: biochemical; details: dose-dependent; recombinant TP53RK and TPRKB
T1 construct: made in house; host or cells: HEK-293FT (transient calcium phosphate transfection; anti-DDK beads, Superdex 200)
Excerpt: Full-length TP53RK and TPRKB sequences obtained from OriGene (Rockville, Md.) were cloned and inserted into pCMV6-AC-Myc-DDK. These constructs were transiently transfected into HEK-293FT cells to overexpress recombinant C-terminal Myc-DDK tagged TP53RK and TPRKB by calcium phosphate transfection. The recombinant proteins were immunoprecipitated with anti-DDK agarose beads and subjected to gel chromatography using Superdex 200 sizing column with an HPLC system. TP53RK and TPRKB proteins were co-eluted in the same fraction, whereas the TPRKB single protein was eluted in later fractions.
In vitro TP53RK auto-phosphorylation assay was performed as previously described^2. Briefly, purified recombinant TP53RK and TPRKB proteins (1.5-3 μg/reaction) were incubated with 25 uM [γ-32P]ATP (3000 Ci/mmol, 10 mCi/mL, PerkinElmer, Boston, Mass.) in HEPES buffer (25 mM HEPES (pH 7.5), 100 mM NaCl, 25 mM MgCl2. 2 mM DTT, phosphatase inhibitor mix (Roche) for 30 min at 30° C. The reaction was terminated by adding SDS sample buffer, and reaction mixtures were subjected to SDS-PAGE and autoradiography, as well as Coomassie blue staining.

[6] = tested on: Chk1, ATM, ATR, Chk2; assay: Immunoblotting of DNA damage kinase phosphorylation; type: cell-based; details: MM.1S cells, 48 h
Method: as §1

[7] = tested on: E2F1; assay: E2F1 DNA binding activity (EMSA), protein and mRNA; type: cell-based; details: MM cells
Method: (§3) MM cells were harvested and lysed using RIPA-lysis buffer (Boston Bioproducts, Ashland, Mass.) containing 5 mM EDTA, 5 mM NaF, 2 mM Na3VO4, 1 mM PMSF, 5 μg/ml leupeptin, and 5 μg/ml aprotinin. Nuclear proteins were extracted using “Nuclear Extraction Kit” (Affimetrix). After the determination of protein concentration using DC protein assay (Bio-Rad, Hercules, Calif.), β-mercaptoethanol (-ME) was added to the whole-cell lysates to a 2% final concentration. […]
(§4) RNA was extracted using Trizol (Invitrogen) and quantified by a Nanodrop spectrophotometer (Labtech). […] After quantification, 2000 ng of RNA was used to synthesize cDNA via the Superscript II First strand synthesis Kit (Invitrogen), according to the manufacturer's instructions. To evaluate the expression levels of TP53RK, BCL2L11, MYC, Bim, E2F1, TP53, IKZF1, IKZF3, RRM1, p18CDKN2C, PSMB5, PSMB7, PSMA3 and GAPDH, quantitative real time PCR (QRT-PCR) was performed using SYBR GREEN PCR Master Mix (Applied Biosystem), after optimization of the primer conditions. cDNAs were diluted 1:100 or 1:1000 and amplified in a 20 μL reaction. […] Real-time quantitative PCR was performed on ABI Prism 7300 Sequence Detection System (Applied Biosystems). Data were analyzed using the delta delta Ct method. […]

[8] = tested on: c-Myc, IKZF1/3; assay: c-Myc and IKZF1/3 expression (immunoblotting, qPCR); type: cell-based
Method: as §3, §4

[9] = tested on: RRM1, p18CDKN2C; assay: RRM1 and p18CDKN2C expression (RT-qPCR, Western blot); type: cell-based; details: H929 cells
Method: as §1, §2

[10] = tested on: proteasome; assay: Proteasome pathway (GSEA, qPCR) and chymotrypsin-like proteasome activity assay; type: cell-based; details: H929 cells
Method: as §2
Expression data for plasma cells from healthy donors, monoclonal gammopathy of undetermined significance (MGUS), and smoldering myeloma (SMM) were derived from GSE5900 dataset, while expression data from normal plasma cells and 65 MM patients were obtained from GSE4452 dataset, using expression profiling on Affymetrix GeneChip (t test, unpaired, equal variance). […] Data were then normalized and analyzed using D-chip software, seeking statistically significant differences among groups or in p53-target gene expression. Statistical significance was determined by Student t test. The minimal level of significance was P<0.05. […] Gene set enrichment analysis (GSEA) was performed as previously described (2) (GSEA v2.0 at http://www.broad.mit.edu/gsea) using gene set as permutation type, as well as 1,000 permutations and signal to noise as metrics for ranking genes.
Proteasome activity was measured by using Proteasome-Glo™ chymotrypsin-like cell-based assay (Promega, Madison, Wis.) according to manufacturer's protocol.

[11] = tested on: hTERT; assay: hTERT expression and telomerase activity (TeloTAGGG Telomerase PCR ELISA); type: cell-based; details: MM.1S cells and H929 cells
Method: as §1
Telomerase activity in MM.1S and H929 cells was assessed by “TeloTAGGG Telomerase PCR ELISA®” from Roche Applied Science (Mannheim, Germany).

[12] = tested on: TP53RK, CRBN; assay: TP53RK and CRBN expression in MM cells (immunoblotting, qPCR); type: cell-based; details: for TP53RK level: MM.1S cells, 48 h
Method: as §1, §2
pLKO.1-based shRNA vectors were obtained from the RNAi Consortium (Broad Institute). […] After 24 h of infection, cells expressing shRNA were selected with puromycin dihydrochloride (Sigma-Aldrich) at 1-2 μg/ml for 48 h, and then examined for proliferation and/or subjected to immunoblotting analysis. For siRNA transfection, scrambled, TP53RK, CRBN, p53, c-Myc and RRM1 siRNAs were purchased from Thermo Scientific (Lafayette, Colo.). siRNA transfection was carried out by Amaxa electroporation system using “Cell Line Nucleofector® Kit V or C” solution (Lonza, Koln, Germany).

[13] = tested on: B cell; assay: B cell growth inhibition; type: cell-based
[14] = tested on: IL-2 production; assay: Co-stimulation of IL-2 production; type: cell-based
[15] = MM.1S cells, Nutlin-3a 0.5 μM, 48 h

T1 sequence (Q96S44 whole entry, other chains not shown): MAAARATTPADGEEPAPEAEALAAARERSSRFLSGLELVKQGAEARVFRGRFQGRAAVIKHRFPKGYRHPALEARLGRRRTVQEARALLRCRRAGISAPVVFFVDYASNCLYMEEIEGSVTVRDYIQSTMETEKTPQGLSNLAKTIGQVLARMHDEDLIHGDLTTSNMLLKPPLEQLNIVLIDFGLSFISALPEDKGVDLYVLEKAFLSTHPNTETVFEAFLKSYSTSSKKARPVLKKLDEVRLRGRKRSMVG

## COc1ccc(C2=N[C@@H](c3ccc(Cl)cc3)[C@@H](c3ccc(Cl)cc3)N2C(=O)N2CCNC(=O)C2)c(OC(C)C)c1 [Nut3, Nutlin-3a]
[1]; [15]
  p-p53 and p53 levels: upregulated
[2]; MM.1S cells
  IMiD-triggered PARP cleavage in presence of Nut3: enhanced
  MDM2 and XIAP expression: upregulated
[2]; [15]
  LC3-II upregulation triggered by Len and Pom, in presence of Nut3: markedly downregulated

## CCOc1ccc(C(Nc2ccccn2)c2ccc3ccc(C)nc3c2O)cc1C (centres unmarked) [HLM006474]
[2]; dose-dependent
  IMiDs-induced Bim upregulation: blocked

## Nc1cccc2c1C(=O)N(C1CCC(=O)NC1=O)C2=O (centres unmarked) [Pom, pomalidomide]
[3]; H929 cells, 48 h
  drug-triggered growth inhibition in kinase-dead D163A TP53RK transfectants: abrogated
[3]; H929 cells, TP53RK siRNA then Pom 48 h, p<0.02
  Pom-induced MM cell growth inhibition after TP53RK knockdown: enhanced
[3]; MM.1S and H929 cells with wt-p53 versus cell lines with mutant p53
  sensitivity of MM cell lines to drug: more sensitive
[3]; OPM2 cells (mutant p53) and H929 cells (wt-p53)
  drug-triggered cell death after CRBN knock-down: only partially abrogates
[3]; among the IMiDs Thal, Len, Pom
  anti-MM activity: most potent anti-MM activity
[1]; MM.1S cells
  potency of p-p53/p53 downregulation, Pom versus Len: more potently
[1]; MM.1S cells, 2.5 μM, 48 h
  p53 phosphorylation at Ser20 and Ser37: no change
  phosphorylated (p-Ser15)-p53 and p53 levels: downregulated
[1]; MM.1S cells, 48 h
  downstream p-p53 level: markedly reduced
[1]; MM.1S cells, Len or Pom 2.5 μM with Nutlin-3a 0.5 μM, 48 h
  Nut3-induced upregulation of p-p53 and p53: inhibited
[1]; nuclear extracts from MM.1S and H929 cell lines, patient MM cells
  p-p53/p53 downregulation: further confirmed
[4]
  p53 activity (p53 DNA binding): block
[5]
  in vitro auto-phosphorylation of TP53RK: markedly downregulated
[6]
  phosphorylation of ATM, ATR or Chk2: not
  phosphorylation of Chk1: inhibited
[2]; MM.1S cells, 2.5 μM, 48 h
  LC3-II level: upregulation
[7]
  E2F1: increases
[8]; MM.1S cells
  c-Myc transcription (real-time qPCR): decreased transcription
[9]
  RRM1 expression: downregulate
  p18CDKN2C expression: upregulate
[10]
  chymotrypsin-like proteasome activity: downregulation
  proteasome pathway (GSEA): downregulation
[11]
  hTERT expression: significantly inhibited
  telomerase (hTERT) activity: significantly inhibited
[12]
  TP53RK level: induced downregulation

## CC(C)C[C@H](NC(=O)[C@H](Cc1ccccc1)NC(=O)c1cnccn1)B(O)O [bortezomib]
[3]; H929 cells, TP53RK siRNA then BTZ 3 nM 24 h, MTT
  cytotoxicity induced by bortezomib after TP53RK knockdown: further enhanced

## CC1(N2C(=O)c3cccc(N)c3C2=O)CCC(=O)NC1=O (centres unmarked) [3′-methyl derivative]
[13]
  activity in B cell growth inhibition relative to pomalidomide: similar
[14]
  activity in co-stimulation of IL-2 production relative to pomalidomide: similar

## CCc1cc(C(N)=O)ccc1-n1nc(C(C)C)c2c(-n3cnc(-c4cnn(C)c4)c3)ccnc21 [TAS-116]
[1]; MM.1S cells
  p-p53 modulation on Akt inhibition: in neither case was p-p53 modulation observed

## O=C1CCC(N2C(=O)c3ccccc3C2=O)C(=O)N1 (centres unmarked) [Thal, Thalidomide]
[1]; MM.1S cells, 48 h
  downstream p-p53 level: not
[12]
  TP53RK level: not

B1: CRBN siRNA: SMARTpool of J-021086-9 to -12 siRNAs against CRBN (nucleic acid)
guide 1: CAAUUAGAAUCCCUCAAUA
guide 2: GUAUAAGGCUUGCAACUUG
guide 3: GACAUUACCUCUUCAGCUU
guide 4: CGACUUCGCUGUGAAUUAG
modifications: SMARTpool mixture, further chemistry not given here
notes: SMARTpool of J-021086-9 to -12 siRNAs against CRBN
[10]
  chymotrypsin-like proteasome activity: not
[12]; H929 cells
  TP53RK expression after CRBN knockdown: did not change

B2: TP53RK siRNA: SMARTpool of J-003108-09, -10, -11, -12 siRNAs against TP53RK (Table 4) (nucleic acid)
guide 1: GGUAGAAGAAUGUGUAUGA
guide 2: GCUUCCAACUGCUUAUAUA
guide 3: GCUGAACAUUGUGCUCAUA
guide 4: GUACCCAUCCCAACACUGA
modifications: SMARTpool mixture, further chemistry not given here
[3]; H929 cells, siRNA knockdown
  MM cell growth, viable cells by Trypan-blue: triggered MM cell growth inhibition
[3]; MM.1S and H929 cells
  cell growth after knock-down: growth inhibition
[8]; MM.1S cells and H929 cells
  IKZF1/3 expression after TP53RK knockdown: markedly downregulated
[9]
  RRM1 expression: downregulation
  p18CDKN2C expression: upregulation
[10]
  PSMB5 PSMB7 and PSMA3 mRNA: downregulation
  chymotrypsin-like proteasome activity: significantly inhibited
  poly-ubiquitinated proteins: accumulation
  proteasome pathway (GSEA): downregulated
[11]
  hTERT expression: downregulated
[12]; H929 cells (also MM.1S)
  CRBN expression after TP53RK knock-down: did not modulate; also recorded: not altered
[12]; MM.1S and H929 cells
  TP53RK mRNA levels: markedly decreased
